Test results as given in publication PMC3670925, “Extracellular Modulation of the Silkmoth Sex Pheromone Receptor Activity by Cyclic Nucleotides” (PLoS ONE, 2013).

Legend:
Type in all cases: cell-based
[1] = target: T1, Or47a (Drosophila melanogaster, UniProt P81921); experiment: two-electrode voltage clamp in Xenopus oocytes, […]
T1 construct: with Orco
T1 sequence (P81921 1-385): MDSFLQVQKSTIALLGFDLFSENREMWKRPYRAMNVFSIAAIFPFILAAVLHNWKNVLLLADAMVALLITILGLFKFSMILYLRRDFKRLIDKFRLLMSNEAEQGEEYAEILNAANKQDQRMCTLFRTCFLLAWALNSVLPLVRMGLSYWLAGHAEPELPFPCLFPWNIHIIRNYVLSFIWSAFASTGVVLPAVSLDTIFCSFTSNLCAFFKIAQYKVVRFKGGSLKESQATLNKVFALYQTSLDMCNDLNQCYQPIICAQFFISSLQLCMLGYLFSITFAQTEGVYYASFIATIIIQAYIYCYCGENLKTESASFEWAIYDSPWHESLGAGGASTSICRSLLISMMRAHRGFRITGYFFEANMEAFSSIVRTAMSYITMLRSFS
T1 sequence (Q9VNB5 1-486 partner): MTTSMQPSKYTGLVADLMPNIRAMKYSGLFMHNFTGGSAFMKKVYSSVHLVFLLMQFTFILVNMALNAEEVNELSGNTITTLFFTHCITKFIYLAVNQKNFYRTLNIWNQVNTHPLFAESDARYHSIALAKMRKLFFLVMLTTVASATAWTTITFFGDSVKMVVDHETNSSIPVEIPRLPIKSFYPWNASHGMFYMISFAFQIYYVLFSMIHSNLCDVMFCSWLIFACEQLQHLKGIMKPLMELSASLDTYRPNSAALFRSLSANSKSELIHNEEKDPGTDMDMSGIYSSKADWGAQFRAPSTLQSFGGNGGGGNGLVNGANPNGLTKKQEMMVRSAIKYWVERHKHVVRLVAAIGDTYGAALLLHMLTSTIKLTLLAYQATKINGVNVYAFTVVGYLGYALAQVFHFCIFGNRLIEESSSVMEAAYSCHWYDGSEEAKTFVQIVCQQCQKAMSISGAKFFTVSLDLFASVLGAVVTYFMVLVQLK

[2] = target: T2, BmOr-1 (Bombyx mori, UniProt Q5WA61); experiment: two-electrode voltage clamp in Xenopus oocytes, dose-response
T2 construct: with BmOrco
T2 sequence (Q5WA61 1-430): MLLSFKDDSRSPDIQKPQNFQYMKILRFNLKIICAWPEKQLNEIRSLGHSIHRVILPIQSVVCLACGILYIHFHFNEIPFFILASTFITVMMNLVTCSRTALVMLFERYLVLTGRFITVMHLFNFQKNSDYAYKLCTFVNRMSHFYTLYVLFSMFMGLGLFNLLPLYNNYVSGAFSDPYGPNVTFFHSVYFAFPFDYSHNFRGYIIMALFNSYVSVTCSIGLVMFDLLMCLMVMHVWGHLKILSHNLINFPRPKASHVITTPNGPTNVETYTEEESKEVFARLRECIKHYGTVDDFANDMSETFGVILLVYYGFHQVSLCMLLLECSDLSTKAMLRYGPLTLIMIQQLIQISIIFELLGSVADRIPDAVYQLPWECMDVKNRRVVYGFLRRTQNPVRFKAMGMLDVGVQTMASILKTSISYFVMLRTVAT
T2 sequence (Q7YT34 1-472 partner): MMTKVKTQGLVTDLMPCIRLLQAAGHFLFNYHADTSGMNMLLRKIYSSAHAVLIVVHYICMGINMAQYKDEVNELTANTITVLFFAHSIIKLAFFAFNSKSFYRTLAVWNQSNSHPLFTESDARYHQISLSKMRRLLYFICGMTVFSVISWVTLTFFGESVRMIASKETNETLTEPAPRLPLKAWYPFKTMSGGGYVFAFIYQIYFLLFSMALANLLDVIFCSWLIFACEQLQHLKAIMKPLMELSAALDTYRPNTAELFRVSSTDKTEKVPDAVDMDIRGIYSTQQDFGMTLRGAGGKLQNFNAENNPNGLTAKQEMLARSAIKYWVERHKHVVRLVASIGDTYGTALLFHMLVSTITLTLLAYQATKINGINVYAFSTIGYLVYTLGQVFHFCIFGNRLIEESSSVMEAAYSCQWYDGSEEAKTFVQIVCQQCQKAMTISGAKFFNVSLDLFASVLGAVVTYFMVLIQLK

[3] = target: T3, AgOr2 (Anopheles gambiae, UniProt Q8WTE6); experiment: two-electrode voltage clamp in Xenopus oocytes, […]
T3 construct: gene OR2; with AgOrco
T3 sequence (Q8WTE6 whole entry): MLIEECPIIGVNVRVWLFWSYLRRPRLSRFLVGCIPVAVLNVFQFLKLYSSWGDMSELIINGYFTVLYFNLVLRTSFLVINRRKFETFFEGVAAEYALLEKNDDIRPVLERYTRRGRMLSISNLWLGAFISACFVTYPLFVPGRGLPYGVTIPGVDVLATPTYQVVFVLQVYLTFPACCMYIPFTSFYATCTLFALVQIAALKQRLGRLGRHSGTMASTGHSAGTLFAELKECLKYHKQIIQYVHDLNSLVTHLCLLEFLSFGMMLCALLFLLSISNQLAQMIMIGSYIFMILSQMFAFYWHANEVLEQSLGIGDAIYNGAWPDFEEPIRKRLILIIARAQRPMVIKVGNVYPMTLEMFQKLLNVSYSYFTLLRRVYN

## CCCCCOC(C)=O [pentylacetate]
[1]
  two-electrode voltage clamp in Xenopus oocytes, 100 μM: oocytes expressing various insect Or-Orco complex in response to their cognate ligands and cyclic nucleotide reagents

## CCC/C=C\C=C\CCCCCCCCCO [bombykol]
[2]
  EC50: 8.2 µM

## Cc1ccccc1O [2-methylphenol]
[3]
  two-electrode voltage clamp in Xenopus oocytes, 100 μM: oocytes expressing various insect Or-Orco complex in response to their cognate ligands and cyclic nucleotide reagents
